Results published in PubChem BioAssay AID504680 (Sanford-Burnham Center for Chemical Genomics, 2011).
The source made the active and inactive calls.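 How the source made its calls: active means IC50 below 100 µM in the TR-FRET assay, unless also active in the caspase-3 counter assay; inactive means the rest, including compounds also active in caspase-3.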

Molecular target: Caspase-3 (Homo sapiens) (UniProt P42574)
Assay: inhibition of recombinant caspase-3 activity – biochemical, luminescence, Caspase-Glo 3/7, counter-screen for UBC13 polyubiquitin inhibitor project, SAR follow-up (AID 504680)
Conditions: recombinant caspase-3, Caspase-Glo luminescence, 60 min

Sequence of Caspase-3 (Homo sapiens) (P42574 whole entry, looked up): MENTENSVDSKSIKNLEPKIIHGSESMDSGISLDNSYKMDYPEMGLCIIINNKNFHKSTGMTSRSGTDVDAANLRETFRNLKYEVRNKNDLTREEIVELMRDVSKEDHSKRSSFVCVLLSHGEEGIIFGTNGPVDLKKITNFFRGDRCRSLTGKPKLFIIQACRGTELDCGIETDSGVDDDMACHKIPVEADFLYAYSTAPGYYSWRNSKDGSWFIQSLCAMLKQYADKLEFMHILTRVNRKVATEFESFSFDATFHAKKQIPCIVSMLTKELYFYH

Row | SMILES | IC50
1 | Cc1ccccc1OCC(O)CN1CCN(CCN2C(=O)c3cccc4cccc(c34)C2=O)CC1 (stereo unspecified) | > 100 µM (inactive)
2 | O=C1c2cccc3cccc(c23)C(=O)N1CCN1CCN(CC(O)COCc2ccc(Cl)cc2)CC1 (stereo unspecified) | > 100 µM (inactive)
3 | CN(CCNC(=O)C1CCN(c2ncnc3c2nc2n3CCCCC2)CC1)Cc1ccccc1 | > 100 µM (inactive)
4 | O=C(CCCCn1c(=O)c2ccccc2n(Cc2ccccc2F)c1=O)NC1CCN(Cc2ccccc2)CC1 | > 100 µM (inactive)
5 | CC1CN(S(=O)(=O)c2ccc(NC(=O)CCCCCN3C(=O)c4ccccc4C3=O)cc2)CC(C)O1 (stereo unspecified) | > 100 µM (inactive)
6 | CCOc1cccc2sc(N(CCCN(C)C)C(=O)c3ccc(S(=O)(=O)N4CCc5ccccc5C4)cc3)nc12 | > 100 µM (inactive)
7 | COc1cc(/C=C/c2cc[n+](C)cc2)ccc1OCC(=O)Nc1ccc(Cl)c(Cl)c1 | > 100 µM (inactive)
8 | CN(C)CCCN(C(=O)c1ccc(S(=O)(=O)N2CCCCC2)cc1)c1nc2cc3c(cc2s1)OCO3 | > 100 µM (inactive)
9 | O=C(NCC1CCN(Cc2ccc(F)cc2)CC1)C1CCCN(c2ncnc3c2nc2n3CCCCC2)C1 (stereo unspecified) | > 100 µM (inactive)
10 | Cc1ccc2c(c1)C1CN(C)CCC1N2C(=O)CCCN1C(=O)c2cccc3cccc(c23)C1=O (stereo unspecified) | > 100 µM (inactive)
11 | O=C1c2cccc3cccc(c23)C(=O)N1CCN1CCN(CC(O)COc2ccc3c(c2)OCO3)CC1 (stereo unspecified) | > 100 µM (inactive)
12 | Cc1cc(NC(=O)Cn2c(=O)n(CCCCC(=O)NC3CCN(Cc4ccccc4)CC3)c(=O)c3ccccc32)n[nH]1 | > 100 µM (inactive)
13 | CCOc1cccc2sc(N(CCCN(C)C)C(=O)c3ccc(S(=O)(=O)N(CC)Cc4ccccc4)cc3)nc12 | > 100 µM (inactive)
14 | O=C(CCCn1c(=O)c2ccccc2n(Cc2ccccc2F)c1=O)NC1CCN(Cc2ccccc2)CC1 | > 100 µM (inactive)
15 | Cc1ccccc1NC(=S)NC(=O)CCCCCN1C(=O)c2ccccc2C1=O | > 100 µM (inactive)
16 | Cc1cc(C)cc(OCCNC(=O)CCCCCN2C(=O)c3ccccc3C2=O)c1 | > 100 µM (inactive)
17 | O=C(C1CCN(c2ncnc3c2nc2n3CCCCC2)CC1)N1CCOCC1 | > 100 µM (inactive)
18 | CN(C)CCCN(C(=O)c1ccc(C(=O)c2ccccc2)cc1)c1nc2cc3c(cc2s1)OCCO3 | > 100 µM (inactive)
19 | O=C(CCCCCN1C(=O)c2ccccc2C1=O)NCCc1nc2ccccc2[nH]1 | > 100 µM (inactive)
20 | COc1ccc(OC)c2sc(N(CCCN(C)C)C(=O)c3ccc(S(=O)(=O)N4CCc5ccccc5C4)cc3)nc12 | > 100 µM (inactive)
21 | CCc1ccc2nc(N(CCCN(C)C)C(=O)c3ccc(S(=O)(=O)N4CCc5ccccc5C4)cc3)sc2c1 | > 100 µM (inactive)
22 | CC(NC(=O)CCCCCN1C(=O)c2cccc([N+](=O)[O-])c2C1=O)c1ccccc1 (stereo unspecified) | > 100 µM (inactive)
23 | O=C(CCCCCN1C(=O)c2ccccc2C1=O)Nc1ccc(S(=O)(=O)N2CCCCC2)cc1 | > 100 µM (inactive)

Row | SMILES | IC50
24 | Cc1cc(OCC(O)CN2CCN(CCN3C(=O)c4cccc5cccc(c45)C3=O)CC2)ccc1C(C)C (stereo unspecified) | > 100 µM (inactive)
25 | Cc1[nH]c2c(Cl)c(Cl)ccc2c1CCNC(=O)CCCCCN1C(=O)c2ccccc2C1=O | > 100 µM (inactive)
26 | O=C(CCCCCN1C(=O)c2cccc3cccc(c23)C1=O)NCCO | > 100 µM (inactive)
27 | CC1CCCCN1C(=O)C1CCN(c2ncnc3c2nc2n3CCCCC2)CC1 (stereo unspecified) | > 100 µM (inactive)
28 | COc1ccc2sc(N(CCCN(C)C)C(=O)c3ccc(S(=O)(=O)N4CCc5ccccc5C4)cc3)nc2c1 | > 100 µM (inactive)
29 | O=C(CCCCCN1C(=O)c2ccccc2C1=O)NCc1ccccn1 | > 100 µM (inactive)
30 | Cc1c(NC(=O)CCCN2C(=O)c3cccc4cccc(c34)C2=O)c(=O)n(-c2ccccc2)n1C | > 100 µM (inactive)
31 | CCc1ccc(OCC(O)CN2CCC(CN3C(=O)c4cccc5cccc(c45)C3=O)CC2)cc1 (stereo unspecified) | > 100 µM (inactive)
32 | O=C(CCCCCN1C(=O)c2ccccc2C1=O)N1CCN(c2ccc([N+](=O)[O-])cc2)CC1 | > 100 µM (inactive)
33 | O=C(Nc1ccc(F)c(Cl)c1)C1CCN(c2ncnc3c2nc2n3CCCCC2)CC1 | > 100 µM (inactive)
34 | CN(C)CCCn1c(SCC(=O)Nc2nc(-c3cccc(Br)c3)cs2)nc2ccccc2c1=O | > 100 µM (inactive)
35 | Cc1cc(NS(=O)(=O)c2ccc(NC(=O)CCCCCN3C(=O)c4ccccc4C3=O)cc2)nc(C)n1 | > 100 µM (inactive)
36 | COc1ccc(CCNC(=O)CCCCCN2C(=O)c3ccccc3C2=O)cc1 | > 100 µM (inactive)
37 | CCOc1ccc2nc(N(CCCN(C)C)C(=O)c3ccc(S(=O)(=O)N4CCc5ccccc5C4)cc3)sc2c1 | > 100 µM (inactive)
38 | COc1cccc(OCC(O)CN2CCN(CCN3C(=O)c4cccc5cccc(c45)C3=O)CC2)c1 (stereo unspecified) | > 100 µM (inactive)
39 | Cc1cccc(C)c1NC(=O)Cn1c(=O)n(CCCC(=O)NC2CCN(Cc3ccccc3)CC2)c(=O)c2ccccc21 | > 100 µM (inactive)
40 | O=C(NCC1CCN(Cc2ccccc2F)CC1)C1CCCN(c2ncnc3c2nc2n3CCCCC2)C1 (stereo unspecified) | > 100 µM (inactive)
41 | O=C(CCCn1c(=O)c2ccccc2n(Cc2cccc(F)c2)c1=O)NC1CCN(Cc2ccccc2)CC1 | > 100 µM (inactive)
42 | O=C1c2cccc3cccc(c23)C(=O)N1CCN1CCN(CC(O)COc2ccc(C3CCCCC3)cc2)CC1 (stereo unspecified) | > 100 µM (inactive)
43 | CC(=O)c1ccccc1OCC(O)CN1CCN(CCN2C(=O)c3cccc4cccc(c34)C2=O)CC1 (stereo unspecified) | > 100 µM (inactive)
44 | O=C(CCCn1c(=O)c2ccccc2n(Cc2cccc([N+](=O)[O-])c2)c1=O)NC1CCN(Cc2ccccc2)CC1 | > 100 µM (inactive)
45 | CC(C)(C)c1ccc(OCC(O)CN2CCN(CCN3C(=O)c4cccc5cccc(c45)C3=O)CC2)cc1 (stereo unspecified) | > 100 µM (inactive)
46 | CC(=O)Nc1ccc(OCC(O)CN2CCN(CCN3C(=O)c4cccc5cccc(c45)C3=O)CC2)cc1 (stereo unspecified) | > 100 µM (inactive)
